Experiments:
Assay in all cases: relative viability (nuclei count vs DMSO), 5 days (fraction); higher = more cells survive
[1] = compound: CS(=O)(=O)c1ccc(-c2cnc(N)c(C(=O)Nc3ccccc3)n2)cc1 [VE-821] + CC1(C)CCC(c2ccc(Cl)cc2)=C(CN2CCN(c3ccc(C(=O)NS(=O)(=O)c4ccc(N[C@H](CCN5CCOCC5)CSc5ccccc5)c(S(=O)(=O)C(F)(F)F)c4)cc3)CC2)C1 [Navitoclax] (partner 0.5 µM)
In short: (§1)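 Relative viability was taken as the ratio of nuclei in treated wells to nuclei in vehicle wells. Lung cancer cell lines in 1536-well plates received compounds by pin tool one day after seeding, either one drug alone or a fixed anchor-drug dose plus five library-drug doses (not always all listed) in √10 steps. Nuclei were counted on 4× images after 5 days of treatment, and values are medians of duplicate plates.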

[2] = compound: CS(=O)(=O)c1ccc(C(=O)Nc2ccc(Cl)c(-c3ccccn3)c2)c(Cl)c1 [Vismodegib] + COc1cccc2cc(-c3nc([C@H]4CC[C@H](C(=O)O)CC4)n4ncnc(N)c34)[nH]c12 [OSI-027] (partner 0.5 µM)
In short: as §1

[3] = compound: N#CC[C@H](C1CCCC1)n1cc(-c2ncnc3[nH]ccc23)cn1 [Ruxolitinib] + CC(=O)Nc1cccc(-n2c(=O)n(C3CC3)c(=O)c3c(Nc4ccc(I)cc4F)n(C)c(=O)c(C)c32)c1 [Trametinib] (partner 0.02 µM)
In short: as §1

[4] = compound: N#CC[C@H](C1CCCC1)n1cc(-c2ncnc3[nH]ccc23)cn1 [Ruxolitinib] + C[C@]1(O)C[C@@H](c2nc(-c3ccc4ccc(-c5ccccc5)nc4c3)c3c(N)nccn32)C1 [Linsitinib] (partner 1 µM)
In short: as §1

Cell Line: LXF-289
- relative viability ([1]; first compound 0.08 µM): 1.01
- relative viability ([1]; first compound 0.253 µM): 0.967
- relative viability ([1]; first compound 0.8 µM): 0.989
- relative viability ([1]; first compound 2.53 µM): 1.1
- relative viability ([1]; first compound 8 µM): 1.01
- relative viability ([2]; first compound 0.08 µM): 0.764
- relative viability ([2]; first compound 0.253 µM): 0.764
- relative viability ([2]; first compound 0.8 µM): 0.795
- relative viability ([2]; first compound 2.53 µM): 0.823
- relative viability ([2]; first compound 8 µM): 0.59
- relative viability ([3]; first compound 0.08 µM): 0.598
- relative viability ([3]; first compound 0.253 µM): 0.677
- relative viability ([3]; first compound 0.8 µM): 0.706
- relative viability ([3]; first compound 2.53 µM): 0.514
- relative viability ([3]; first compound 8 µM): 0.668
- relative viability ([4]; first compound 0.08 µM): 0.919
- relative viability ([4]; first compound 0.253 µM): 0.972
- relative viability ([4]; first compound 0.8 µM): 0.858
- relative viability ([4]; first compound 2.53 µM): 0.892
- relative viability ([4]; first compound 8 µM): 0.813

Cell Line: NCI-H1793
- relative viability ([1]; first compound 0.08 µM): 0.693
- relative viability ([1]; first compound 0.253 µM): 0.507
- relative viability ([1]; first compound 0.8 µM): 0.251
- relative viability ([1]; first compound 2.53 µM): 0.449
- relative viability ([1]; first compound 8 µM): 0.314
- relative viability ([2]; first compound 0.253 µM): 0.246
- relative viability ([2]; first compound 0.8 µM): 0.248
- relative viability ([2]; first compound 2.53 µM): 0.242
- relative viability ([2]; first compound 8 µM): 0.23
- relative viability ([3]; first compound 0.08 µM): 0.406
- relative viability ([3]; first compound 0.253 µM): 0.42
- relative viability ([3]; first compound 0.8 µM): 0.466
- relative viability ([3]; first compound 2.53 µM): 0.338
- relative viability ([3]; first compound 8 µM): 0.364
- relative viability ([4]; first compound 0.08 µM): 0.632
- relative viability ([4]; first compound 0.253 µM): 0.92
- relative viability ([4]; first compound 0.8 µM): 1.04
- relative viability ([4]; first compound 2.53 µM): 1.12
- relative viability ([4]; first compound 8 µM): 0.968

Cell Line: NCI-H647
- relative viability ([1]; first compound 0.08 µM): 1.09
- relative viability ([1]; first compound 0.253 µM): 1.15
- relative viability ([1]; first compound 0.8 µM): 0.856
- relative viability ([1]; first compound 2.53 µM): 1
- relative viability ([1]; first compound 8 µM): 0.573
- relative viability ([2]; first compound 0.08 µM): 0.665
- relative viability ([2]; first compound 0.253 µM): 0.605
- relative viability ([2]; first compound 0.8 µM): 0.671
- relative viability ([2]; first compound 2.53 µM): 0.486
- relative viability ([2]; first compound 8 µM): 0.579
- relative viability ([3]; first compound 0.08 µM): 0.607
- relative viability ([3]; first compound 0.253 µM): 0.437
- relative viability ([3]; first compound 0.8 µM): 0.523
- relative viability ([3]; first compound 2.53 µM): 0.182
- relative viability ([3]; first compound 8 µM): 0.48
- relative viability ([4]; first compound 0.08 µM): 1.29
- relative viability ([4]; first compound 0.253 µM): 1.15
- relative viability ([4]; first compound 0.8 µM): 1.22
- relative viability ([4]; first compound 2.53 µM): 1.16
- relative viability ([4]; first compound 8 µM): 1.03

Cell Line: NCI-H3122
- relative viability ([1]; first compound 0.08 µM): 1.07
- relative viability ([1]; first compound 0.253 µM): 1.02
- relative viability ([1]; first compound 0.8 µM): 1.01
- relative viability ([1]; first compound 2.53 µM): 1.02
- relative viability ([1]; first compound 8 µM): 0.922
- relative viability ([2]; first compound 0.08 µM): 0.971
- relative viability ([2]; first compound 0.253 µM): 0.863
- relative viability ([2]; first compound 0.8 µM): 0.84
- relative viability ([2]; first compound 2.53 µM): 0.849
- relative viability ([2]; first compound 8 µM): 0.981
- relative viability ([3]; first compound 0.08 µM): 0.232
- relative viability ([3]; first compound 0.253 µM): 0.192
- relative viability ([3]; first compound 0.8 µM): 0.21
- relative viability ([3]; first compound 2.53 µM): 0.167
- relative viability ([3]; first compound 8 µM): 0.227
- relative viability ([4]; first compound 0.08 µM): 1.09
- relative viability ([4]; first compound 0.253 µM): 1.06
- relative viability ([4]; first compound 0.8 µM): 1.02
- relative viability ([4]; first compound 2.53 µM): 0.815
- relative viability ([4]; first compound 8 µM): 1.04

Cell Line: PC-3 [JPC-3]
- relative viability ([1]; first compound 0.08 µM): 0.837
- relative viability ([1]; first compound 0.253 µM): 0.801
- relative viability ([1]; first compound 0.8 µM): 0.859
- relative viability ([1]; first compound 2.53 µM): 0.789
- relative viability ([1]; first compound 8 µM): 0.744
- relative viability ([2]; first compound 0.08 µM): 0.823
- relative viability ([2]; first compound 0.253 µM): 0.756
- relative viability ([2]; first compound 0.8 µM): 0.718
- relative viability ([2]; first compound 2.53 µM): 0.728
- relative viability ([2]; first compound 8 µM): 0.673
- relative viability ([3]; first compound 0.253 µM): 0.711
- relative viability ([3]; first compound 0.8 µM): 0.79
- relative viability ([3]; first compound 2.53 µM): 0.654
- relative viability ([3]; first compound 8 µM): 0.64
- relative viability ([4]; first compound 0.08 µM): 0.882
- relative viability ([4]; first compound 0.253 µM): 0.973
- relative viability ([4]; first compound 0.8 µM): 0.973
- relative viability ([4]; first compound 2.53 µM): 0.963
- relative viability ([4]; first compound 8 µM): 0.872

Cell Line: NCI-H1355
- relative viability ([1]; first compound 0.08 µM): 1.09
- relative viability ([1]; first compound 0.253 µM): 0.91
- relative viability ([1]; first compound 0.8 µM): 0.729
- relative viability ([1]; first compound 2.53 µM): 0.879
- relative viability ([1]; first compound 8 µM): 0.542
- relative viability ([2]; first compound 0.08 µM): 0.488
- relative viability ([2]; first compound 0.253 µM): 0.447
- relative viability ([2]; first compound 0.8 µM): 0.378
- relative viability ([2]; first compound 2.53 µM): 0.444
- relative viability ([2]; first compound 8 µM): 0.399
- relative viability ([3]; first compound 0.08 µM): 0.372
- relative viability ([3]; first compound 0.253 µM): 0.372
- relative viability ([3]; first compound 0.8 µM): 0.395
- relative viability ([3]; first compound 2.53 µM): 0.347
- relative viability ([3]; first compound 8 µM): 0.386
- relative viability ([4]; first compound 0.08 µM): 0.794
- relative viability ([4]; first compound 0.253 µM): 0.841
- relative viability ([4]; first compound 0.8 µM): 0.843
- relative viability ([4]; first compound 2.53 µM): 0.753
- relative viability ([4]; first compound 8 µM): 0.716

Cell Line: NCI-H1792
- relative viability ([1]; first compound 0.08 µM): 0.66
- relative viability ([1]; first compound 0.253 µM): 0.639
- relative viability ([1]; first compound 0.8 µM): 0.63
- relative viability ([1]; first compound 2.53 µM): 0.685
- relative viability ([1]; first compound 8 µM): 0.623
- relative viability ([2]; first compound 0.08 µM): 0.766
- relative viability ([2]; first compound 0.253 µM): 0.75
- relative viability ([2]; first compound 0.8 µM): 0.606
- relative viability ([2]; first compound 2.53 µM): 0.679
- relative viability ([2]; first compound 8 µM): 0.623
- relative viability ([3]; first compound 0.08 µM): 0.38
- relative viability ([3]; first compound 0.253 µM): 0.498
- relative viability ([3]; first compound 0.8 µM): 0.407
- relative viability ([3]; first compound 2.53 µM): 0.347
- relative viability ([3]; first compound 8 µM): 0.359
- relative viability ([4]; first compound 0.08 µM): 0.495
- relative viability ([4]; first compound 0.253 µM): 0.504
- relative viability ([4]; first compound 0.8 µM): 0.488
- relative viability ([4]; first compound 2.53 µM): 0.417
- relative viability ([4]; first compound 8 µM): 0.499

Cell Line: NCI-H838
- relative viability ([1]; first compound 0.08 µM): 1.3
- relative viability ([1]; first compound 0.253 µM): 1.11
- relative viability ([1]; first compound 0.8 µM): 1.02
- relative viability ([1]; first compound 2.53 µM): 1.18
- relative viability ([1]; first compound 8 µM): 1.07
- relative viability ([2]; first compound 0.08 µM): 0.416
- relative viability ([2]; first compound 0.253 µM): 0.334
- relative viability ([2]; first compound 0.8 µM): 0.338
- relative viability ([2]; first compound 2.53 µM): 0.41
- relative viability ([2]; first compound 8 µM): 0.441
- relative viability ([3]; first compound 0.08 µM): 0.554
- relative viability ([3]; first compound 0.253 µM): 0.44
- relative viability ([3]; first compound 0.8 µM): 0.477
- relative viability ([3]; first compound 2.53 µM): 0.217
- relative viability ([3]; first compound 8 µM): 0.185
- relative viability ([4]; first compound 0.08 µM): 1.03
- relative viability ([4]; first compound 0.253 µM): 0.903
- relative viability ([4]; first compound 0.8 µM): 0.87
- relative viability ([4]; first compound 2.53 µM): 0.534
- relative viability ([4]; first compound 8 µM): 0.36

From the supplement of paper PMC10307832
